Test results taken from patent US20090104598A1, “Dopamine D2 receptor gene variants” (CENTRE FOR ADDICTION AND MENTAL HEALTH, priority 2006, published 2009).

Experiments:
clinical = conditions: human, in vivo
From the text: Thus, % Score Change=(6 Month Score−Baseline Score)/(Baseline Score).

[1] = treatment refractory patients; Miller 1996; cited from earlier work

concentration at 6 month (clinical): 399 ng/mL
SMILES: CN1CCN(C2=Nc3cc(Cl)ccc3Nc3ccccc32)CC1 [clozapine]
blood clozapine threshold level that increases likelihood of clinical response [1]: 350 ng/mL
